The nature of assay [1]: Efficacy of octenidine in Octeniderm with added dye. From the text: However, blue dyes are not accepted by the market on account of the poor visibility of the vessels under the skin.
A further assay concerns S. aureus ATCC 6538. As to the kind of experiment: Method A: remanence effect of the dried preparation on tiles, germ count determination. The assay is classed as cell-based. The following applies: preliminary experiments with a new type of method. As for the experimental part:
No in-vitro method was hitherto known for being able to rapidly examine (i.e. screen) the potential impairment of the remanent effect of antiseptic active ingredients due to added dyes, and specifically in particular in the presence of large amounts of solvents, such as alcohols. […] 0.2 ml of the test preparation was spread to the edge on a tile measuring 5×5 cm and left to dry optically. Here, solvents evaporate and the antiseptic active ingredient (octenidine was tested) remains on the tile. Then, 0.1 ml of bacteria suspension (test germ S. aureus ATCC 6538, starting germ count of the solution 10^6 CFU/ml, on the tile then 10^5 CFU/ml) is applied to an area of 3×3 cm on the tile. After the corresponding contact time, the tile is transferred to a container filled with glass beads (diameter 3-4 mm) and 10 ml of neutralization solution (TLSH) and shaken for 2 minutes on a horizontal shaker at 200 rpm. Finally, a germ count determination is performed by means of dilution series. The dilution stages 10^0, 10^−1, 10^−2 and 10^−3 are plated out. The agar plates are incubated for 24-48 hours at 36±1° C. The CFU/ml resulting therefrom is used to calculate the logarithmic reduction factor (RF) for the preparations and the water control. A high […] reduction factor means good bactericidal efficacy of the preparation. […]

For the compound `CCN(CC)c1ccc(C(=C2C=CC(=[N+](CC)CC)C=C2)c2cc(O)c(S(=O)(=O)[O-])cc2S(=O)(=O)[O-])cc1.CCN(CC)c1ccc(C(=C2C=CC(=[N+](CC)CC)C=C2)c2cc(O)c(S(=O)(=O)[O-])cc2S(=O)(=O)[O-])cc1.[Ca+2]` [Patent Blue V], the “restriction of the efficacy of the octenidine in Octeniderm by the dye” value in assay [1] was “no restriction of the efficacy”.

For the compound `O=C([O-])c1ccccc1-c1c2ccc(=O)cc-2oc2cc([O-])ccc12.[Na+].[Na+]` [uranine], the “remanence effect of octenidine in preparations which comprise the dye” value with S. aureus ATCC 6538 was “inhibited”.

The values above are taken from patent US9675701B2, “Coloured disinfectant preparation based on bispyridiniumalkane” (L'AIR LIQUIDE, SOCIETE ANONYME POUR L'ETUDE ET …, priority 2014, dated 2017).
